Each structure is given as a SMILES string.

The nature of series [1]: Encapsulation efficiency by Ribogreen assay. The series is classed as physicochemical. The settings on record: formulated at pH 5.
Source text: As used herein, “encapsulated” can refer to a nanoparticle that provides an active agent or therapeutic agent, such as a nucleic acid (e.g., a messenger RNA), with full encapsulation, partial encapsulation, or both. In a preferred embodiment, the nucleic acid is fully encapsulated in the nanoparticle. In the context of nucleic acid therapeutic agents, full encapsulation may be determined by a Ribogreen® assay. RiboGreen® is an ultra-sensitive fluorescent nucleic acid stain for quantitating oligonucleotides and single-stranded DNA or RNA in solution (available from Thermo Fisher Scientific—US).
Nanoparticles containing compound 3:DOPE:cholesterol:DMG-PEG2k at molar ratios of 1:0.25:0.9625:0.0375 and RNA at two different weight ratios were formulated using NanoAssemblr Benchtop (Precision NanoSystems Inc, Vancouver, BC, Canada)). RNA was diluted with DNase/RNase-Free, endotoxin free distilled water and sterile acetate buffer to a final desired pH. Total flow rate was maintained at 8 mL per min at a 3:1 ratio of aqueous to organic phase for formulating on the Benchtop. Using glassware depyrogenated by heating at 250° C. for 24 h, nanoparticles were dialyzed against sterile, endotoxin-free PBS using 20,000 molecular weight cutoff dialysis. Dialyzed nanoparticles were sterile filtered using 0.2 micron poly(ether sulfone) filters and characterized with a Zetasizer NanoZS machine (Malvern). The size distributions were characterized by a single peak with a low polydispersity index. Encapsulation efficiency was measured to be 95% for the nanoparticle composition containing compound 3 and SEAP mRNA or SEAP replicon RNA (formulated at pH 5) using Ribogreen® assay (Geall et al. 10.1073/pnas.1209367109 which is incorporated herein by reference as if fully set forth).
(§1) Nanoparticles containing the compound 8:cholesterol:DOPE:DMG-PEG2k at molar ratios of 1:2:1.5:0.0375 were formulated using NanoAssemblr Benchtop (Precision NanoSystems Inc, Vancouver, BC, Canada)). RNA was diluted with Dnase/Rnase-Free, endotoxin free distilled water and sterile citrate buffer to a final desired pH. Total flow rate was maintained at 8 mL per min at a 3:1 ratio of aqueous to organic phase for formulating on the Benchtop. Using glassware depyrogenated by heating at 250° C. for 24 hours, nanoparticles were dialyzed against sterile, endotoxin-free PBS using 20,000 molecular weight cutoff dialysis. Dialyzed nanoparticles were sterile filtered using 0.2 micron poly(ether sulfone) filters and characterized with a Zetasizer NanoZS machine (Malvern). The size distributions were characterized by a single peak with a low polydispersity index. Encapsulation efficiency was measured to be 89% for the nanoparticle composition containing compound 8 and Replicon SEAP RNA (formulated at pH 5) using Ribogreen® assay.
as §1, with “8 or compound 9:cholesterol:DOPE DMG-PEG2k” for “8:cholesterol:DOPE:DMG-PEG2k”, “7,000” for “20,000”, “81%” for “89%”, “Luciferase Ψ mRNA” for “Replicon SEAP RNA”, “assay. Encapsulation efficiency was measured to be 82% for the nanoparticle composition containing compound 9 and Luciferase Ψ mRNA (formulated at pH 5). […]” for “assay.”

A further series relates to SEAP expression. The experiment in a line: In vivo SEAP production in mouse serum (Phospha-Light assay). Further details: species or system mice.
Series [2] in a line: Hydrodynamic size measurement by dynamic light scattering (Zetasizer). The series is classed as physicochemical. Conditions: for Z average: DOPE, DMG-PEG 2000 and SEAP Replicon RNA; for Z average (size of strongest intensity): FIG. 4; for Z average (size of strongest intensity) / polydispersity index: compound 8 and SEAP RNA, hand mixing. On the procedure:
Additionally, with reference to FIG. 2, nanoparticles were formulated by mixing 21 μl of an ethanol phase containing compound 5 or compound 6, cholesterol, DOPE, and DMG PEG 2000 (PEG-lipid, Avanti Polar Lipids) at molar ratio of 1:2:1.5:0.0375 with 63 μl of SEAP Replicon RNA encoding secreted embryonic alkaline phosphatase (diluted with UltraPure, DNase/RNase-free, endotoxin-free distilled water (Invitrogen) and sterile 100 mM (pH 5) citrate buffer to a final citrate concentration of 10 mM. The resulting nanoparticles contained 4:1 mass ratio of compound 5 or compound 6 to RNA. Formulations were diluted 100-fold for analysis of particle size distribution, Z-average, and derived count rate using a Zetasizer Nano ZS (Malvern Panalytical).
The “Z average” of the nanoparticle composition containing compound 5 or compound 6, cholesterol, DOPE, DMG-PEG 2000 and SEAP Replicon RNA as function of size was determined by dynamic light scattering (DLS). […] Referring to FIG. 2, the size distributions were characterized with a low polydispersity index, indicating a relatively monodisperse size.
Reference to FIG. 4, nanoparticles were formulated by mixing 21 μl of an ethanol phase containing Compound 8, cholesterol, DOPE, and DMG PEG 2000 (PEG-lipid, Avanti Polar Lipids) at molar ratio of 1:2:1.5:0.0375 with 63 μl of Replicon RNA encoding secreted embryonic alkaline phosphatase (SEAP) diluted with UltraPure, DNase/RNase-free, endotoxin-free distilled water (Invitrogen) and sterile 100 mM (pH 5 or pH3) citrate buffer to a final citrate concentration of 10 mM. The derived NPs were characterized with a Zetasizer NanoZS machine (Malvern). The size distributions were characterized by a single peak with a low polydispersity index.
FIG. 4 illustrates distribution of the nanoparticle composition measured as the intensity (Z average) based on size (d.nm; diameter in nm) of the nanoparticles. Referring to FIG. 4, the “Z average” of the nanoparticle composition containing compound 8 and SEAP RNA as function of size was determined by dynamic light scattering (DLS). […] The polydispersity index of nanoparticles formulated with buffer pH 3 and pH 5 is 0.13 and 0.11, respectively, indicating a relatively monodisperse size.
as §1
The “Z average” of the nanoparticle composition containing compound 8, cholesterol, DOPE, DMG-PEG 2000 and SEAP Replicon RNA as function of size was determined by dynamic light scattering (DLS). […] Referring to Table 2, the size distributions were characterized with a low polydispersity index, indicating a relatively monodisperse size.
Nanoparticles containing the compound 8 or compound 9:cholesterol:DOPE DMG-PEG2k at molar ratios of 1:2:1.5:0.0375 were formulated using NanoAssemblr Benchtop (Precision NanoSystems Inc, Vancouver, BC, Canada)). RNA was diluted with Dnase/Rnase-Free, endotoxin free distilled water and sterile citrate buffer to a final desired pH. […]
A general note: Replicon systems follow genome replication, usually without infectious particles.

Assay in series [3]: as above
Conditions: cholesterol. The series is classed as physicochemical.

Setting [4] is: cholesterol:DOPE:DMG-PEG2k nanoparticles with Luciferase Ψ mRNA.
[5] abbreviates: Table 3, DOPE, DMG-PEG 2000 and Luciferase Ψ mRNA.
The mark [6] stands for this setting: cholesterol:DSPC:DMG-PEG2k 50:38.5:10:1.5 nanoparticles with SEAP Ψ mRNA.
[7] abbreviates: FIG. 7, DSPC, DMG-PEG 2000 and SEAP Ψ mRNA.

In turn, `CCCCCCCCCCSSCCCCCCOC(=O)CCN(CCCCN(C)CCCNC(=O)CCCCCCC/C=C\C[C@@H](O)CCCCCC)CCC(=O)OCCCCCCSSCCCCCCCCCC` [Compound 3] returned an Encapsulation efficiency in series [1] (nanoparticles compound 3:DOPE:cholesterol:DMG-PEG2k with SEAP mRNA or SEAP replicon RNA) of 95%. In the series on SEAP expression (FIG. 1, SEAP replicon RNA and SEAP mRNA formulated with compound 3), the “SEAP protein production in vivo” value is reported as “resulted in SEAP protein production”. Moreover, the “SEAP expression in mouse serum, 10:1 versus 15:1 compound 3:RNA” value with SEAP expression (formulations with 10:1 compound 3:RNA, mice, 2 μg SEAP mRNA or SEAP replicon RNA, serum 16 hrs later) is “higher expression”.
Take `CCCCCCCCCCCCn1cc(COC(=O)CCN(CCCN(C)CCCNCCCO[C@H]2O[C@@H](COC(C)=O)[C@H](OC(C)=O)[C@@H](OC(C)=O)[C@@H]2OC(C)=O)CCC(=O)OCc2cn(CCCCCCCCCCCC)nn2)nn1` [Compound 6]: the Z average in series [2] (FIG. 2, hand mixing with cholesterol, pH 5 citrate, 4:1 mass ratio to RNA) was determined as 122.0 nm·days.
For `CCCCCCCCCCCCCCCCOC(=O)CCN(CCCCN(C)CCCNCCCOP(=O)(OCC)OCC)CCC(=O)OCCCCCCCCCCCCCCCC` [Compound 8], the results for the “Z average (size of strongest intensity)” value in series [2] (buffer pH 3) and in series [2] (buffer pH 5) were 133.7 nm·days and 191.3 nm·days, respectively. Also, the Z average worked out at 78.2 nm·days in series [2] (Table 2, compound 8, cholesterol, microfluidic mixing) and 76.5 nm·days in series [3] (setting [5]). Also, the polydispersity index in series [2] (buffer pH 3) turned out to be 0.13; in series [2] (buffer pH 5), 0.11. The Encapsulation efficiency in series [1] (setting [4]) is recorded as 81%; in series [1] (compound 8:cholesterol:DOPE:DMG-PEG2k with Replicon SEAP RNA, microfluidic mixing), 89%.
Take `CCCCCCCCCCCCCCCCOC(=O)CCN(CCCCN(C)CCCNCCCO[C@@H]1O[C@H](COC(C)=O)[C@@H](OC(C)=O)[C@H](OC(C)=O)[C@H]1OC(C)=O)CCC(=O)OCCCCCCCCCCCCCCCC` [Compound 9]: the Encapsulation efficiency in series [1] (setting [4]) worked out at 82%. For the same compound, the Z average in series [3] (setting [5]) is 80.9 nm·days.
Turning to `CCCCCCCCCCCCOC(=O)CCSSCCC(=O)NCCCN(C)CCCN(CCC(=O)OCCCCCCCC)CCC(=O)OCCCCCCCC` [Compound 13], the Encapsulation efficiency in series [1] (setting [6]) turned out to be 89%. In series [3] (setting [7]), this compound showed a Z average of 129.5 nm·days. In addition, the “SEAP expression in mice serum, compound 13 compared to compound 18” value in the series on SEAP expression (FIG. 8, BALB/c mice, approximately 2 μg, SEAP Ψ mRNA nanoparticles formulated at pH 5) is “better SEAP expression”.
In series [1] (setting [6]), `CCCCCCCCCCCCOC(=O)CCCCCCC(=O)NCCCN(C)CCCN(CCC(=O)OCCCCCCCC)CCC(=O)OCCCCCCCC` [Compound 18] had an Encapsulation efficiency of 84%. The Z average in series [3] (setting [7]) was determined as 74.8 nm·days.
